Test results as given in article PMC8607422, “Development of a novel TLR8 agonist for cancer immunotherapy” (Molecular Biomedicine, 2020).

How the values were obtained:
[1] = test system: EMT6 mouse breast cancer cells; experiment: EMT6 mouse syngeneic breast cancer model; format: in vivo; conditions: AZD-1775 30 mg/kg po bid
Procedure: All the animal experiments were conducted following Association for Assessment and Accreditation of Laboratory Animal Care (AAALAC)‘s guideline. The animal protocols were approved by the Institutional Animal Care and Use Committee (IACUC). Cell lines were purchased from credible vendors including ATCC. After tumor cell inoculation, the animals were checked daily for morbidity and mortality. At the time of routine monitoring, the animals were checked for any effects of tumor growth and treatment on the animals’ well-being such as mobility, food and water consumption, body weight gain/loss, matting and any other abnormalities. Clinical observations were recorded. Tumor volumes were measured twice a week in two dimensions using a caliper and the volume was expressed in mm^3 using the formula: V = 0.5 a × b^2 where a and b are the long and short diameters of the tumor, respectively. The procedures of dosing as well as tumor and body weight measurement were conducted in a laminar flow cabinet.
For EMT6 experiments, EMT6 mouse breast cancer cells were cultured in vitro as a monolayer culture in RPMI1640 medium supplemented with 10% fetal bovine serum and 1% penicillin/streptomycin at 37°C in an atmosphere of 5% CO2 in air. […] The cells growing in the exponential growth phase were harvested and counted for tumor inoculation. […]

hTLR7 = biological target: T1, hTLR7 (Homo sapiens, UniProt Q9NYK1); experiment: HEK-Blue hTLR7 SEAP reporter agonist assay; format: cell-based; conditions: positive control
T1 construct: host or cells: HEK-Blue hTLR7
T1 sequence (Q9NYK1 27-1049): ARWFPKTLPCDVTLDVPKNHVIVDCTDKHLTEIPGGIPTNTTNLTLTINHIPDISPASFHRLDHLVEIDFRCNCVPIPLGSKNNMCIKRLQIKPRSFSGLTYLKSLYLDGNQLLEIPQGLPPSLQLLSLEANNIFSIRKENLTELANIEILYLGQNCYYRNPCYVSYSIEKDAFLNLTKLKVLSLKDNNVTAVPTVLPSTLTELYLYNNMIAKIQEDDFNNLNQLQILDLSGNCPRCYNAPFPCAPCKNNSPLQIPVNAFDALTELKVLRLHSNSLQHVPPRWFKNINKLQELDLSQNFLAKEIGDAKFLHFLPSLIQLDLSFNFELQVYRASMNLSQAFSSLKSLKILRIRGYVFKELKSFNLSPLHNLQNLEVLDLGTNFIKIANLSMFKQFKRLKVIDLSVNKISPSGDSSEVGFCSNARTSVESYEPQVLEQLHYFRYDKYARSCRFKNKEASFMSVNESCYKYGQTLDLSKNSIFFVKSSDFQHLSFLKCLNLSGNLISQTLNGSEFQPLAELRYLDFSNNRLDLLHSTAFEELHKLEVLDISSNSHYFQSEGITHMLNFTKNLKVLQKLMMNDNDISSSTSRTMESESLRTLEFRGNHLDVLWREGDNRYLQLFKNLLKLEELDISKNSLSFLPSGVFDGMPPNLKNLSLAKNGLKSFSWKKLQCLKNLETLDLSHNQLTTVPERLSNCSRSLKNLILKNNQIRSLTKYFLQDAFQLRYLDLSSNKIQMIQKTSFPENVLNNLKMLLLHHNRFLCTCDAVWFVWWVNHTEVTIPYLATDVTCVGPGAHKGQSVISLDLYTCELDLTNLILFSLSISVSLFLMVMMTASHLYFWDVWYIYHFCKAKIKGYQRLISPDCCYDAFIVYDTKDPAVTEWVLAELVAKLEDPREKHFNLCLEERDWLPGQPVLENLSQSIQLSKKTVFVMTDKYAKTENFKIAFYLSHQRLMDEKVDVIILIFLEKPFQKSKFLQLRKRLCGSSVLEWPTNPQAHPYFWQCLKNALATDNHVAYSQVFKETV
Source text: HEK-Blue™ hTLR4, 7, 8 and 9 cell lines were purchased from InvivoGen (Hong Kong). The cells express the human TLR gene and NF-κB/AP-1-inducible SEAP (secreted embryonic alkaline phosphatase) reporter gene. SEAP levels produced upon TLR stimulation can be determined by QUANTI-Blue™. In the cell-based assay, the main reagents used were QUANTI-Blue™ (InvivoGen) and ATPlite 1 Step (Perkin Elmer). The main instruments used were the microplate reader SpectraMax 340PC (Molecular Device) and Envision (Perkin Elmer). Motolimod and DN052 were synthesized in house. […] The compounds were in 10 mM stock solution in DMSO and stored at − 20°C. The compounds were serially diluted in the concentration range from 0.5 nM to 15 μM (up to 50 μM in the hTLR4, hTLR7 and hTLR9 assays) and added to 96-well plates. DMSO was used as the negative control. LPS-EK, R848, motolimod and ODN2006 were used as the positive control for TLR4, 7, 8 and 9, respectively. The cells were cultured and treated with the compounds at 37°C, 5%CO2 for 24 h. […] After 1.5 h of incubation, the optical density was measured using the spectrophotometer at 650 nm in the microplate reader of SpectraMax 340PC. The cell viability of each well was determined using ATPlite 1 Step following the manufacturer’s instruction. The luminescence signal in each well of plates was measured in the microplate reader of Envision.

activity of positive control in TLR7 assay (hTLR7) | Structure (SMILES) | response of EMT6 model to single agent [1]
– | C=CCn1c(=O)c2cnc(Nc3ccc(N4CCN(C)CC4)cc3)nc2n1-c1cccc(C(C)(C)O)n1 [AZD-1775] | largely resistant
active | CCOCc1nc2c(N)nc3ccccc3c2n1CC(C)(C)O [R848] | –
